pIC50: −log10 of the molar value.
Tests used:
[1] = target: T1, Glutaminase kidney isoform, mitochondrial (Homo sapiens, UniProt O94925); test: Inhibition of GAC (unknown origin)
T1 sequence (O94925 whole entry): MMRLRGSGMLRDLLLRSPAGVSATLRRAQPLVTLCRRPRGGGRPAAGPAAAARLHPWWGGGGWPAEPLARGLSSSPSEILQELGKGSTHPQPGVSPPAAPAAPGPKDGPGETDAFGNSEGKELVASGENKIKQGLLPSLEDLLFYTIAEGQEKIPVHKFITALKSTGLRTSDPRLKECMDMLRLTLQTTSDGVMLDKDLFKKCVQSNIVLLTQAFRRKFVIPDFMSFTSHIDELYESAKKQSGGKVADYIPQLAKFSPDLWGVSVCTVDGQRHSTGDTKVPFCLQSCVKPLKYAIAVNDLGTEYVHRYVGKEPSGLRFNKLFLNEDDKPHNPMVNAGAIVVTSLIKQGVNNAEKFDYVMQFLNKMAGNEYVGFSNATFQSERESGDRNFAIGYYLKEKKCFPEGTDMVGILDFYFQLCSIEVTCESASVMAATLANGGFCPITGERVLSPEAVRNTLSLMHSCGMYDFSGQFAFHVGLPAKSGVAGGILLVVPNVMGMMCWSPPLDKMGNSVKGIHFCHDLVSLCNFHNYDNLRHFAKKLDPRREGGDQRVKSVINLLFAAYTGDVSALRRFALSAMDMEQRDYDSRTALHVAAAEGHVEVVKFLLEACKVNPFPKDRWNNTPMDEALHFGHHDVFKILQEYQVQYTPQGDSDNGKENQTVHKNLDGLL

[2] = target: T1, Glutaminase kidney isoform, mitochondrial; test: Inhibition of recombinant GAC (unknown origin) after 15 mins in presence of NADPH by glutamate oxidase coupled spectrophotometric analysis
[3] = species: Bos taurus; test: Inhibition of bovine GDH
[4] = target: T1, Glutaminase kidney isoform, mitochondrial; test: Inhibition of human GAC after 10 mins by glutamate oxidase coupled Amplex UltraRed dye based assay
[5] = target: T2, Cystine/glutamate transporter (Homo sapiens, UniProt Q9UPY5); test: Inhibition of xCT-mediated cystein/glutamate transporter (unknown origin) assessed as reduction in L-[14C]cyctein uptake
T2 sequence (Q9UPY5 whole entry): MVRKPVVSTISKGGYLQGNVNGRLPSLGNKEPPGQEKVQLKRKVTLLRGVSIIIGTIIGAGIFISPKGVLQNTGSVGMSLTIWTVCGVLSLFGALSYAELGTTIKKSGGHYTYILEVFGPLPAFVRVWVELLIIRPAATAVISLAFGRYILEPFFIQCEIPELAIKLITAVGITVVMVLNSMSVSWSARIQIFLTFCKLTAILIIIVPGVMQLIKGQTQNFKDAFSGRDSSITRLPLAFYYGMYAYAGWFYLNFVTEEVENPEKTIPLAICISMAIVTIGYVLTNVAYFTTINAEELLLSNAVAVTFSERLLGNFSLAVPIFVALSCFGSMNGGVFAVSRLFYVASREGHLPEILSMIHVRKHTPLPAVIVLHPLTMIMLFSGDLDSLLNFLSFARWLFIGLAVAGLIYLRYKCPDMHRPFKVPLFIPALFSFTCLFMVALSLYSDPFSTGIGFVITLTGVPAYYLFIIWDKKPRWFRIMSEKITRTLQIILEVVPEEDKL

[6] = target: T3, Glutaminase kidney isoform, mitochondrial (Homo sapiens) (UniProt O94925); test: Inhibition of recombinant GAC (unknown origin) at 0.1 uM after 15 mins in presence of NADPH by glutamate oxidase coupled spectrophotometric analysis relative to control
T3 sequence (whole entry): T1 sequence (O94925 whole entry)

Structure (SMILES) | pIC50 [1] | further results
O=C(Cc1ccccc1)Nc1nnc(C[C@H]2C[C@@H]2Cc2nnc(NC(=O)Cc3ccccc3)s2)s1 (racemic) | 6.30 to 7.00 | 
O=C(Cc1ccccc1)Nc1ccn(CCCCn2cc(C(=O)NCc3cccc(OC(F)(F)F)c3)nn2)c(=O)c1F | > 7.00 | 
O=C(Cc1cccc(OC(F)(F)F)c1)Nc1ccc(CCCCc2nnc(NC(=O)Cc3ccccn3)s2)cn1 |  | pIC50 [2]: 7.00 to 7.30
O=C(Cc1ccccc1)Nc1ccn(CCCCc2cc3cc(Cc4ccccc4)[nH]c3nn2)c(=O)c1 | > 7.00 | 
O=C(Cc1ccccc1)Nc1nnc([C@@H]2CC[C@H](c3nnc(NC(=O)Cc4ccccc4)s3)C2)s1 | 5.70 to 6.00 | 
O=C(O[C@@H]1Cc2c(O)cc(O)cc2O[C@@H]1c1ccc(O)c(O)c1)c1cc(O)c(O)c(O)c1 |  | ED50 [3]: 300 nM
CNC(=O)c1cn(CCCCc2ccc(C(=O)NCc3ccccc3)nn2)nn1 |  | pIC50 [4]: > 7.00
O=C(NCc1ccccc1)c1cn(CCCCc2cc3cc(Cc4ccccc4)[nH]c3nn2)nn1 | > 7.00 | 
O=C(Cc1ccccc1)Nc1nnc([C@H]2CC[C@H](c3nnc(NC(=O)Cc4ccccc4)s3)C2)s1 (racemic) | 6.30 to 7.00 | 
O=C(O)c1cc(/N=N/c2ccc(S(=O)(=O)Nc3ccccn3)cc2)ccc1O [SULFASALAZINE] |  | pIC50 [5]: 4.52 to 6.80
O=C(Cc1ccccc1)Nc1ccn(CCCCc2nnc(NC(=O)Cc3ccccc3)s2)c(=O)c1 | > 7.00 | 
O=C(Cc1cccc(OC(F)(F)F)c1)Nc1ncc(CCCCc2nnc(NC(=O)Cc3ccccn3)s2)cn1 |  | inhibition [6]: < 25%
O=C(Cc1ccccc1)Nc1ccn(CCCCn2cc(C(=O)NCc3cccc(OC(F)(F)F)c3)nn2)c(=O)c1 | > 7.00 | 
O=C(Cc1ccccc1)Nc1ccn(CCCCc2nnc(NC(=O)Cc3ccccc3)s2)c(=O)n1 | > 7.00 | 
O=C(NCc1cccc(C(F)(F)F)c1)c1cn(CCCCn2cc(C(=O)NCc3cccc(C(F)(F)F)n3)nn2)nn1 |  | pIC50 [4]: > 7.00
O=C(NCC1CCCCC1)c1cn(CCCCn2cc(C(=O)NCC3CCCCC3)nn2)nn1 |  | pIC50 [4]: < 6.30

Structure (SMILES) | pIC50 [1] | further results
O=C(O)c1cc(/C=C/c2ccc(S(=O)(=O)Nc3ccccn3)cc2)ccc1O |  | pIC50 [5]: 4.52
O=C(Cc1ccccc1)Nc1nnc([C@H]2CCC[C@H](c3nnc(NC(=O)Cc4ccccc4)s3)C2)s1 (racemic) | > 7.00 | 
O=C(Cc1ccccc1)Nc1nnc(CCCCc2cnc3[nH]c(Cc4ccccc4)nc3c2)s1 | < 6.30 | 
O=C(Cc1ccccc1)Nc1ccn(CCCCc2ccc(NC(=O)Cc3cccc(OC(F)(F)F)c3)nn2)c(=O)c1 | > 7.00 | 
O=C(O)c1cc(C#Cc2ccc(S(=O)(=O)Nc3ccccn3)cc2)ccc1O |  | pIC50 [5]: 4.15
O=C(Cc1ccccc1)Nc1ccn(CCCCn2ccc(NC(=O)Cc3ccccc3)nc2=O)c(=O)n1 | < 6.30 | 
O=C(Cc1cccc(OC(F)(F)F)c1)Nc1cnc(CCCCc2nnc(NC(=O)Cc3ccccn3)s2)cn1 |  | inhibition [6]: < 25%
O=C(Cc1ccccc1)Nc1nnc(CCCCn2ccc(NC(=O)Cc3ccccc3)c(F)c2=O)s1 | > 7.00 | 
Cc1nc(NC(=O)Cc2cccc(OC(F)(F)F)c2)ccc1CCCCc1nnc(NC(=O)Cc2ccccn2)s1 |  | inhibition [6]: < 25%
O=C(NCc1ccccc1)c1cn(CCCCn2cc(C(=O)NCc3cccc(C(F)(F)F)n3)nn2)nn1 |  | pIC50 [4]: 6.30 to 7.00
O=C(Cc1cccc(OC(F)(F)F)c1)Nc1ccc(CCCCc2nnc(NC(=O)Cc3ccccn3)s2)nc1 |  | inhibition [6]: < 25%
O=C(O[C@@H]1Cc2c(O)cc(O)cc2O[C@@H]1c1cc(O)c(O)c(O)c1)c1cc(O)c(O)c(O)c1 |  | ED50 [3]: 300 nM
O=C(Cc1ccccc1)Nc1nnc(CCCCn2cc(C(=O)NCc3ccccc3)nn2)s1 |  | pIC50 [4]: > 7.00
O=C(Cc1ccccc1)Nc1nnc([C@@H]2CCC[C@H](c3nnc(NC(=O)Cc4ccccc4)s3)C2)s1 | 5.70 to 6.00 | 
O=C(Cc1ccccc1)Nc1nnc(CCCCc2cc3cc(Cc4ccccc4)[nH]c3nn2)s1 | > 7.00 | 
